Paper PMC4359537, “Pharmacological characterisation of murine α4β1δ GABAA receptors expressed in Xenopus oocytes” (BMC Neuroscience, 2015)
Values joined by “and” are separate entries in the source; they are usually repeats but may differ in a detail not shown here. Equal values may be shown once. “Also recorded” adds a separate entry of the source. Read-outs that look alike come from different tables or passages of the source.

What was measured:
α6β3δ receptors = conditions: cited from earlier work
α4β1δ receptors = target: T1, α4β1δ receptors (UniProt P18506+P50571+Q9D6F4); assay: Two-electrode voltage-clamp of murine α4β1δ GABAA receptors expressed in Xenopus oocytes; format: cell-based, mouse
T1 construct: expressed in transfected cells; host or cells: Xenopus laevis oocytes, cDNA-injected (pRK5 vector), ratio 1:1:5
Description: (§1) Oocytes from Xenopus laevis toads were prepared as described. […] To obtain free oocytes, ovarian lobes were cut into pieces and incubated in OR2 (85 mM NaCl, 5 mM HEPES, 1 mM MgCl2, pH adjusted to 7.6 with KOH) supplemented with 2-2.5 mg/mL collagenase type 1 (Lorne Laboratories, Danehill, UK) for 3-4 hrs. Oocytes were washed several times in OR2 and subsequently in Barth’s solution (88 mM NaCl, 1 mM KCl, 0.33 mM Ca(NO3)2, 0.41 mM CaCl2, 0.82 mM MgSO4, 2.4 mM NaHCO3, 10 mM HEPES, pH adjusted to 7.6 with NaOH) to isolate cells and remove follicular membranes. After preparation, the oocytes were injected with 27 or 55 nL of 30 ng/μL cDNA in a ratio of 1:1 (α4β1) or 1:1:5 (α4β1δ). Oocytes were subsequently maintained at 18°C in Barth’s solution supplemented with gentamycin (Invitrogen, Paisley, UK).
(§2) Electrodes were filled with 3 M KCl and had resistances of 0.5 to 3 MΩ. The oocytes were clamped at a holding potential of -60 mV and were perfused with buffer (100 mM NaCl, 2 mM KCl, 2 mM CaCl2, 1 mM MgCl2, 5 mM HEPES, pH adjusted to 7.4 with NaOH) throughout the recordings. All currents were adjusted when necessary for voltage drop using equation 1:1 I=Imeasured⋅Vh−Vrev/Vh−Vrev+ΔV
(§3) Drugs were applied using a fast application system coupled to a small bath volume ([…]), enabling drug onset times of ~ 10 ms.
(§4) For each co-application, the peak-response was measured. […] All monophasic inhibition-curves were fitted to a modified version of equation 2.
Normalized responses were pooled and plotted as mean ± SEM from at least four different oocytes taken from at least two different Xenopus toads. For statistical evaluation, a repeated measures ANOVA with Dunnett’s post test was used. The significance level was set at *P < 0.05, **P < 0.01, ***P < 0.001. For inhibition curves, an F-test was performed to determine whether the data was either monophasic or biphasic.

α1β2γ2 receptors = conditions: steady-state GABA responses, HEK293 cells; cited from earlier work
α4β1 receptors = target: T2, α4β1 receptors (Mus musculus, UniProt P50571+Q9D6F4); assay: Two-electrode voltage-clamp of murine α4β1 GABAA receptors expressed in Xenopus oocytes; format: cell-based; conditions: for EC50: GABA-activated peak currents, oocytes clamped at -60 mV
T2 construct: expressed in transfected cells; host or cells: Xenopus laevis oocytes, cDNA-injected (pRK5 vector), ratio 1:1
Description: as §1, §2, §3, §4

α2β1γ2 receptors = conditions: Xenopus oocytes; cited from earlier work
[1] = inhibition of steady-state (desensitized) response after 70 s co-application with GABA EC75 (3 μM)
[2] = Hill coefficient of GABA concentration response curve
[3] = depending upon expression levels
[4] = inhibition of peak response to GABA EC20 after pre-application
[5] = GABA EC75 (8 μM), biphasic inhibition
[6] = inhibition of peak response to GABA EC75 (3 μM), 1 min pre-incubation

T1 sequence (Q9D6F4 36-552): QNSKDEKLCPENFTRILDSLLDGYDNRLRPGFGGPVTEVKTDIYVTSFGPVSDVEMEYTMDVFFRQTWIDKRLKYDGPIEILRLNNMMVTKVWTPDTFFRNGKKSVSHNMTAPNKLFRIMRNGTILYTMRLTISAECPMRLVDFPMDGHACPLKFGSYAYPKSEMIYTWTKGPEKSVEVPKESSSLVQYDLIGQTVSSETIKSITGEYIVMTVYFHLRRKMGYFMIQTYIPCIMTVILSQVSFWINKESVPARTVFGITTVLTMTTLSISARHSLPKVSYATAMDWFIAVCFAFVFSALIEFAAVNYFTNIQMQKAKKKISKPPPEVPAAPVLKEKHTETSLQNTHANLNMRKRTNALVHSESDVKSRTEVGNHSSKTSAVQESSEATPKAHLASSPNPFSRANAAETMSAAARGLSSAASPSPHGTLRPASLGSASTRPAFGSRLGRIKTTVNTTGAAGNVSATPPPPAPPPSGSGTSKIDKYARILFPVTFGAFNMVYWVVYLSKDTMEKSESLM
T1 sequence (P50571 26-474): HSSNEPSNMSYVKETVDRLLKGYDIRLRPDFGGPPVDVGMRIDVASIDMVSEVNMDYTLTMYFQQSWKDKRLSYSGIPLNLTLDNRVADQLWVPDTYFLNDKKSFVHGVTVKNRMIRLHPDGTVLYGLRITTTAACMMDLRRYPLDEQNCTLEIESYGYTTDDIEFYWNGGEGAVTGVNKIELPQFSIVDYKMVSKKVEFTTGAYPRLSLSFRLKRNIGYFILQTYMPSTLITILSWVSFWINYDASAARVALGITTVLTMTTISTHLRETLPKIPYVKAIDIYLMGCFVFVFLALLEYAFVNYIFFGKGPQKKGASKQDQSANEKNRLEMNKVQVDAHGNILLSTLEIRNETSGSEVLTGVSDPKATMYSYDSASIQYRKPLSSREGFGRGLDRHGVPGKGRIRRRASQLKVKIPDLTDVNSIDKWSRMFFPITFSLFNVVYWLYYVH
T1 sequence (P18506 17-449 limits assumed): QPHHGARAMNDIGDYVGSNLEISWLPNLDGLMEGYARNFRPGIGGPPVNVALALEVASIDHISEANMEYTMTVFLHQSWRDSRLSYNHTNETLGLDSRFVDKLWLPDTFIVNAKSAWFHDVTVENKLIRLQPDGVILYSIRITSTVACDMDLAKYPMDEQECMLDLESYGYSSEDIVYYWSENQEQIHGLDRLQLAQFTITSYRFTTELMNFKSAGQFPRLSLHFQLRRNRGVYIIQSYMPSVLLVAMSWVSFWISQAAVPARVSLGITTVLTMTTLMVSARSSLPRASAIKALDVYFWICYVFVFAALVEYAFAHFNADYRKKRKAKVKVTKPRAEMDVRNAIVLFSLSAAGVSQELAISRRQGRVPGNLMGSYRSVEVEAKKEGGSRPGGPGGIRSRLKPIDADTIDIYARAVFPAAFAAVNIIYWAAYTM
T2 sequence (Q9D6F4 36-552): as the sequence (Q9D6F4 36-552) above
T2 sequence (P50571 26-474): as the sequence (P50571 26-474) above

In the case of `[Cl][Cu][Cl]` [Cu^2+], the “maximal inhibition of the steady-state response” value (α6β3δ receptors; HEK293) is listed as ~ 68%, the IC50 (α6β3δ receptors; steady-state GABA responses, HEK293 cells) is listed as 65 nM and the “nH (± SEM)” value (α4β1δ receptors; Hill slope of inhibition curve, steady-state response, GABA EC75) is listed as −1.2 ± 0.13. The “maximal inhibition of desensitized GABA responses” value (α4β1δ receptors; at 10 μM, GABA EC75, oocytes) was 98 % inhibition, the IC50 (α4β1δ receptors; [1]) was 820 nM and the “pIC50 ± SEM” value (α4β1δ receptors; [1]) was 6.09 ± 0.04. The IC50 (α1β2γ2 receptors) was 85000 nM.

In the case of `NCCCC(=O)O` [GABA, γ-Aminobutyric acid], the EC50 (α4β1 receptors; read-out: EC50) is reported as 2700 nM, the EC50 (α4β1 receptors; read-out: pEC50 ± SEM (converted)) is reported as 2750 nM and the “nH (± SEM)” value (α4β1 receptors; [2]) is reported as 0.87 and 0.87 ± 0.079. The “maximal currents to GABA” value (α4β1 receptors; [3]) was 100 to 3000 nA, the “nH (± SEM)” value (α4β1δ receptors; [2]) was 1.1 and 1.1 ± 0.11 and the “maximal currents to GABA” value (α4β1δ receptors; [3]) was 300 to 3000 nA.

For `O=C(N/N=C/c1ccccc1O)c1ccccc1O` [SCS, salicylidine salicylhydrazide], the IC50 (α2β1γ2 receptors) is given as 4.36 nM, the maximum inhibition (α2β1γ2 receptors) is given as ~ 33% and the “steady-state level of inhibition” value (α4β1δ receptors; GABA EC20, incomplete inhibition of the GABA current) is given as 67.2 ± 3.2 % of control. For the same compound, the IC50 (α4β1δ receptors; [4]) was 4.2 nM and the “pIC50 ± SEM” value (α4β1δ receptors; [4]) was 8.37 ± 0.25.

For `C[C@]12CC[C@@H](O)C[C@H]1CC[C@@H]1[C@@H]2CC[C@]2(C)[C@@H](C(=O)CO)CC[C@@H]12` [THDOC, tetrahydro-deoxycorticosterone], the “potentiation of GABA peak-response” value (α4β1δ receptors; THDOC 30 and 100 nM co-applied with GABA EC7, P < 0.05) was “significantly increased; also recorded: significant increase; also recorded: able to potentiate”.

In the case of `[Cl-].[Cl-].[Zn+2]` [Zn^2+], the “share of the total inhibition, high potency component (IC50A)” value (α4β1 receptors; [5]) is reported as ~ 25%, the “share of the total inhibition, lower potency component (IC50B)” value (α4β1 receptors; [5]) is reported as ~ 75% and the “pIC50A ± SEM” value (α4β1 receptors; GABA EC75 (8 μM), high potency component of two-site fit) is reported as 9.87 ± 0.22. The IC50 (α4β1 receptors; GABA EC75 (8 μM), high potency component of two-site fit, read-out: IC50A) was 0.13 nM, the “pIC50B ± SEM” value (α4β1 receptors; GABA EC75 (8 μM), lower potency component of two-site fit) was 7.25 ± 0.13 and the IC50 (α4β1 receptors; GABA EC75 (8 μM), lower potency component of two-site fit, read-out: IC50B) was 56 nM. The “nH (± SEM)” value (α4β1 receptors; Hill slope of IC50B component, GABA EC75) was -1.1 ± 0.13, the “nH (± SEM)” value (α4β1δ receptors; Hill slope of inhibition curve, peak response, GABA EC75) was −0.75 ± 0.041 and the “potency shift in IC50 values, α4β1δ versus α4β1” value (α4β1δ receptors; from low micromolar to mid nanomolar) was “approximately 60 fold”. The IC50 (α4β1δ receptors; [6]) was 3300 nM and the “pIC50 ± SEM” value (α4β1δ receptors; [6]) was 5.48 ± 0.03.
